Counter-ions that a name gives are not always drawn.

This note sets out measurements from US20250115558A1, “PYRIDAZINE DERIVATIVES AND RELATED USES” (NodThera Limited, priority 2023, published 2025).

Assay [1] deals with THP-1. The experiment in a line: THP-1 IC50 assay. The class given is cell-based. The conditions noted are these: Homo sapiens; THP-1 cells.
The subject of assay [2] is IL-1β release upon NLRP3 activation in peripheral blood mononuclear cells (PBMC). Description: PBMC IC50 Determination Assay. The class given is cell-based. Conditions: Homo sapiens; inhibition of IL-1β release; LPS-primed PBMC stimulated with ATP or nigericin. As to the method:
The compounds of the present disclosure were tested for their inhibitory activity against IL-1β release upon NLRP3 activation in peripheral blood mononuclear cells (PBMC).
Protocol A. PBMC were isolated from buffy coats by density gradient centrifugation on Histopaque-1077 (Sigma, cat no. 10771). Isolated cells were seeded into the wells of a 96-well plate and incubated for 3 h with lipopolysaccharide (LPS). Following medium exchange, the compounds of the present disclosure were added (a single compound per well) and the cells were incubated for 30 min. Next, the cells were stimulated either with ATP (5 mM) or nigericin (10 μM) for 1 h and the cell culture media from the wells were collected for further analysis.
The release of IL-1β into the media was determined by a quantitative detection of IL-1β in the media using an IL-1β enzyme-linked immunosorbent assay (ELISA) Ready-SET-Go!, eBioscience cat. No. 88-7261-88. Briefly, in a first step, high affinity binding plates (Corning, Costar 9018 or NUNC Maxisorp Cat No. 44-2404) were coated overnight at 4° C. with specific capture antibody included in the kit (anti-human IL-1β ref. 14-7018-68). Subsequently, plates were blocked with blocking buffer for 1 h at room temperature (rt) and after washing with a buffer (PBS with 0.05% Tween-20) incubated with protein standard and culture media. After 2 h of incubation at rt, plates were washed and incubated with biotinylated detection antibody included in the kit (anti-human IL-1β Biotin ref. 33-7110-68) for 1 h at rt. Plates were washed and incubated with HRP-streptavidin for 30 min at rt and washed again. The signal was developed after addition of 3,3′,5,5′-tetramethylbenzidine-peroxidase (TMB) until colour appeared and the reaction was stopped by 2 M H2SO4. A microplate spectrophotometer (BioTek) was used to detect signals with 450 nm. The detection range of IL-1β ELISA was […].
Protocol B. PBMC were isolated from buffy coats by density gradient centrifugation on Histopaque-1077 (Sigma, cat no. 10771). Isolated cells were seeded into the wells (280,000 cells/well) of a 96-well plate and incubated for 3 h with lipopolysaccharide (LPS, 1 μg/mL diluted 1000× from a 1 mg/mL stock solution). The compounds of the present disclosure were added (a single compound per well) and the cells were incubated for 30 min. Next, the cells were stimulated with ATP (5 mM final concentration diluted 20× from a 100 mM stock solution) for 1 h and the cell culture media from the wells were collected for further analysis.
The release of IL-1β into the media was determined by quantitative detection of IL-1β in the media using HTRF®, CisBio cat. No. 62HIL1BPEH. Briefly, cell culture supernatant were dispensed directly into the assay plate containing antibodies labelled with the HTRF® donor and acceptor. A microplate spectrophotometer (BMG) was used to detect signals at 655 nm and 620 nm. The detection range of IL-1β HTRF® was 39-6500 μg/mL.

In general, IC50 refers to the midpoint of a concentration-inhibition curve. The low end stands for higher potency, the high end for lower potency. On to `Cc1cc(C(F)(F)F)cc(O)c1-c1ccc(C(C)N2CCCC2=O)nn1` (stereo not shown) [Compound 80, 1-(1-{6-[2-Hydroxy-6-methyl-4-(trifluoromethyl)phenyl]pyridazin-3-yl}ethyl)pyrrolidin-2-one], for which the IC50 in assay [1] was 1 to 3 µM; in assay [2], under 0.5 µM.

As to `Oc1cc(C(F)(F)F)cc(Cl)c1-c1ccc(CNC2CCOCC2)nn1` [Compound 14, 3-Chloro-2-(6-(((tetrahydro-2H-pyran-4-yl)amino)methyl)pyridazin-3-yl)-5-(trifluoromethyl)phenol], the IC50 in assay [1] and in assay [2] was 1 to 3 µM in each case.

For the molecule `Cc1cc(C(F)(F)F)cc(O)c1-c1ccc(Cn2ccc(=N)cc2)nn1` [Compound 25], the IC50 in assay [1] and in assay [2] was 3 to 10 µM throughout.

For the molecule `Cc1cc(Cl)cc(O)c1-c1ccc(CN2CCCC2=O)nn1` [Compound 62, 1-[[6-(4-chloro-2-hydroxy-6-methyl-phenyl)pyridazin-3-yl]methyl]pyrrolidin-2-one], the IC50 in assay [1] and in assay [2] was under 0.5 µM in each case.

Consider `Cc1cc(C(F)(F)F)cc(O)c1-c1ccc(CN2CCN(C)CC2)nn1` [Compound 131], for which the IC50 in assay [1] was 3 to 10 µM; in assay [2], 1 to 3 µM.

As to `Cc1cc(Cl)cc(O)c1-c1ccc(CNc2c(C)noc2C)nn1` [Compound 56, 5-Chloro-2-(6-(((3,5-dimethylisoxazol-4-yl)amino)methyl)pyridazin-3-yl)-3-methylphenol], the IC50 in assay [1] was 1 to 3 µM; in assay [2] it was 0.5 to 1 µM.

Regarding `Cc1cc(Cl)cc(O)c1-c1ccc(CN[C@H]2CC(=O)N(C)C2)nn1` [Compound 90, (4S)-4-({[6-(4-Chloro-2-hydroxy-6-methylphenyl)pyridazin-3-yl]methyl}amino)-1-methylpyrrolidin-2-one], the figures for the half-maximal inhibitory concentration (IC50) in assay [1] and in assay [2] were 0.5 to 1 µM and under 0.5 µM, respectively.

For `Cc1cc(C(F)(F)F)cc(O)c1-c1ccc(CNCc2ccn(C)n2)nn1` [Compound 127], the half-inhibitory concentration (IC50) in assay [1] was 1 to 3 µM; in assay [2] it was 0.5 to 1 µM.

Regarding `CC(=O)N1CC[C@H](NCc2ccc(-c3c(C)cc(Cl)cc3O)nn2)C1` [Compound 73, (S)-1-(3-(((6-(4-Chloro-2-hydroxy-6-methylphenyl)pyridazin-3-yl)methyl)amino)pyrrolidin-1-yl)ethan-1-one], the IC50 in assay [1] and in assay [2] was under 0.5 µM in each case.

As for `Oc1cc(C(F)(F)F)ccc1-c1ccc(CNC2CCOCC2)nn1` [Compound 13, 2-(6-(((Tetrahydro-2H-pyran-4-yl)amino)methyl)pyridazin-3-yl)-5-(trifluoromethyl)phenol], the 50% inhibitory concentration (IC50) in assay [1] and in assay [2] was 3 to 10 µM throughout.

Consider `Cc1cc(C(F)(F)F)cc(O)c1-c1ccc(CNC2CCCN(C)C2)nn1` (stereo not shown) [Compound 22], for which the IC50 in assay [1] and in assay [2] was 1 to 3 µM in each case.

Consider `Cc1cc(NCc2ccc(-c3c(C)cc(C(F)(F)F)cc3O)nn2)sn1` [Compound 84, 3-Methyl-2-(6-{[(3-methyl-1,2-thiazol-5-yl)amino]methyl}pyridazin-3-yl)-5-(trifluoromethyl)phenol], for which the IC50 in assay [1] and in assay [2] was 0.5 to 1 µM each time.

As for `Cc1cc(OC(F)(F)F)cc(O)c1-c1ccc(CNC2CCOCC2)nn1` [Compound 30, 3-Methyl-2-(6-(((tetrahydro-2H-pyran-4-yl)amino)methyl)pyridazin-3-yl)-5-(trifluoromethoxy)phenol], the half-inhibitory concentration (IC50) in assay [1] and in assay [2] was 3 to 10 µM in each case.

Take `Oc1cc(C(F)(F)F)cc(F)c1-c1ccc(CNC2CCOCC2)nn1` [Compound 42, 3-Fluoro-2-(6-(((tetrahydro-2H-pyran-4-yl)amino)methyl)pyridazin-3-yl)-5-(trifluoromethyl)phenol]: the 50% inhibitory concentration (IC50) in assay [1] and in assay [2] was 3 to 10 µM in each case.

For the molecule `Cc1cc(C(F)(F)F)cc(O)c1-c1ccc(CN2C(=N)N(C)CC2=O)nn1` [Compound 23], the IC50 in assay [1] and in assay [2] was 3 to 10 µM throughout.

Turning to `Cc1cc(C(F)(F)F)cc(O)c1-c1ccc(CNCc2cnccn2)nn1` [Compound 92, 3-Methyl-2-(6-(((pyrazin-2-ylmethyl)amino)methyl)pyridazin-3-yl)-5-(trifluoromethyl)phenol], the IC50 in assay [1] was in the range of 3 to 10 µM; in assay [2], 1 to 3 µM.

Regarding `Cc1cc(C(F)(F)F)cc(O)c1-c1ccc(CNCC2CCN(C)C2)nn1` (stereo not shown) [Compound 77, 3-Methyl-2-[6-({[(1-methylpyrrolidin-3-yl)methyl]amino}methyl)pyridazin-3-yl]-5-(trifluoromethyl)phenol dihydrochloride], the IC50 in assay [1] and in assay [2] was 1 to 3 µM throughout.

Take `Cc1cc(C(F)(F)F)cc(O)c1-c1ccc(CNC2(C)CCOCC2)nn1` [Compound 5, 3-Methyl-2-(6-(((4-methyltetrahydro-2H-pyran-4-yl)amino)methyl)pyridazin-3-yl)-5-(trifluoromethyl)phenol]: the half-maximal inhibitory concentration (IC50) in assay [1] and in assay [2] was 0.5 to 1 µM each time.

For the molecule `Cc1cc(C(F)(F)F)cc(O)c1-c1ccc(CN2CCOC2=O)nn1` [Compound 44, 3-((6-(2-Hydroxy-6-methyl-4-(trifluoromethyl)phenyl)pyridazin-3-yl)methyl)oxazolidin-2-one], the IC50 in assay [1] was 0.5 to 1 µM; in assay [2] it was under 0.5 µM.

For the molecule `Cc1cc(C(F)(F)F)cc(O)c1-c1ccc(CNCC2CCOCC2)nn1` [Compound 109], the IC50 in assay [1] and in assay [2] was 3 to 10 µM each time.

`Cc1cc(C(F)(F)F)cc(O)c1-c1ccc(CNC2CC3(C2)CS(=O)(=O)C3)nn1` [Compound 3, 6-(((6-(2-Hydroxy-6-methyl-4-(trifluoromethyl)phenyl)pyridazin-3-yl)methyl)amino)-2-thiaspiro[3.3]heptane 2,2-dioxide]: the IC50 in assay [1] and in assay [2] was 0.5 to 1 µM throughout.

Take `Cc1cc(C(F)(F)F)cc(O)c1-c1ccc(CNCC2CCCN2C)nn1` (stereo not shown) [Compound 76, 3-Methyl-2-(6-((((1-methylpyrrolidin-2-yl)methyl)amino)methyl)pyridazin-3-yl)-5-(trifluoromethyl)phenol dihydrochloride]: the IC50 in assay [1] and in assay [2] was 1 to 3 µM in each case.

With `Cc1cc(Cl)cc(O)c1-c1ccc(CO[C@H]2CCOC2)nn1` [Compound 64, (S)-5-Chloro-3-methyl-2-(6-(((tetrahydrofuran-3-yl)oxy)methyl)pyridazin-3-yl)phenol], the 50% inhibitory concentration (IC50) in assay [1] and in assay [2] was under 0.5 µM throughout.

As to `Cc1cc(C(F)(F)F)cc(O)c1-c1ccc(CNc2ncccn2)nn1` [Compound 74, 3-Methyl-2-(6-((pyrimidin-2-ylamino)methyl)pyridazin-3-yl)-5-(trifluoromethyl)phenol], the IC50 in assay [1] and in assay [2] was 1 to 3 µM each time.

As to `Cc1cc(C(F)(F)F)cc(O)c1-c1ccc(CN)nn1` [Compound 20, 2-[6-(aminomethyl)pyridazin-3-yl]-3-methyl-5-(trifluoromethyl)phenol], the concentration for half-maximal inhibition (IC50) was in the range of 3 to 10 µM in assay [1] and 1 to 3 µM in assay [2].

Consider `Cc1cc(CNC2CCOCC2)nnc1-c1ccc(C(F)(F)F)cc1O` [Compound 11, 2-(4-Methyl-6-(((tetrahydro-2H-pyran-4-yl)amino)methyl)pyridazin-3-yl)-5-(trifluoromethyl)phenol], for which the IC50 in assay [1] and in assay [2] was 1 to 3 µM each time.

As to `Cc1cc(C(F)(F)F)cc(O)c1-c1ccc(CN2C(=O)CCC2(C)C)nn1` [Compound 47, 1-((6-(2-Hydroxy-6-methyl-4-(trifluoromethyl)phenyl)pyridazin-3-yl)methyl)-5,5-dimethylpyrrolidin-2-one], the IC50 in assay [1] was in the range of 3 to 10 µM; in assay [2], 1 to 3 µM.

Consider `Cc1cc(C(F)(F)F)cc(O)c1-c1ccc(CNCC(F)F)nn1` [Compound 96], for which the IC50 was 0.5 to 1 µM in assay [1] and under 0.5 µM in assay [2].

Turning to `Cc1cc(C(F)(F)F)cc(O)c1-c1ccc(CNC2(C)CCOC2)nn1` (stereo not shown) [Compound 6, 3-Methyl-2-(6-(((3-methyltetrahydrofuran-3-yl)amino)methyl)pyridazin-3-yl)-5-(trifluoromethyl)phenol hydrochloride], the half-maximal inhibitory concentration (IC50) in assay [1] and in assay [2] was 0.5 to 1 µM in each case.
